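Growth conditions: 96-well plates. Treatment: test compound, 48 hours, 5 concentrations. Analysis: linear interpolation between bracketing concentrations; unreached endpoints set to highest concentration. GI50 is the concentration that inhibits growth by half.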 Activity calls are given as the source filed them. No stated cut-off is given here; in the data, active = GI50 up to about 1.1 µM and inactive = higher.
Key:
Experiment in all cases: NCI tumour cell line growth inhibition, 48 h
PC-3 = test system: PC-3
SR = test system: SR
NCI/ADR-RES = test system: NCI/ADR-RES
UACC-257 = test system: UACC-257
DMS-114 = test system: DMS-114
MCF7 = test system: MCF7
T47D = test system: T47D
K562 = test system: K562
HOP-92 = test system: HOP-92
HOP-62 = test system: HOP-62
MOLT-4 = test system: MOLT-4
EKVX = test system: EKVX
SK-MEL-28 = test system: SK-MEL-28
HCT-116 = test system: HCT-116
SF-268 = test system: SF-268
SF-539 = test system: SF-539
HCC 2998 = test system: HCC 2998
786-0 = test system: 786-0
SF-295 = test system: SF-295
COLO 205 = test system: COLO 205
SK-OV-3 = test system: SK-OV-3
MDA-MB-231 = test system: MDA-MB-231
RXF 393 = test system: RXF 393
DU-145 = test system: DU-145
NCI-H460 = test system: NCI-H460
NCI-H23 = test system: NCI-H23
Malme-3M = test system: Malme-3M
KM12 = test system: KM12
UO-31 = test system: UO-31
SK-MEL-2 = test system: SK-MEL-2
CAKI-1 = test system: CAKI-1
OVCAR-5 = test system: OVCAR-5
U-251 = test system: U-251
HL-60 = test system: HL-60
DLD-1 = test system: DLD-1
UACC-62 = test system: UACC-62
HCT-15 = test system: HCT-15
XF498 = test system: XF498
DMS-273 = test system: DMS-273
NCI-H226 = test system: NCI-H226
IGROV-1 = test system: IGROV-1
TK-10 = test system: TK-10
SN12C = test system: SN12C
KM-20L2 = test system: KM-20L2
LOX IMVI = test system: LOX IMVI
OVCAR-4 = test system: OVCAR-4
CCRF-CEM = test system: CCRF-CEM
HT-29 = test system: HT-29
A498 = test system: A498
MDA-N = test system: MDA-N
NCI-H522 = test system: NCI-H522
A549 = test system: A549
BT-549 = test system: BT-549
Hs-578T = test system: Hs-578T
ACHN = test system: ACHN
OVCAR-8 = test system: OVCAR-8
SK-MEL-5 = test system: SK-MEL-5
SNB-75 = test system: SNB-75
SW-620 = test system: SW-620
M14 = test system: M14
OVCAR-3 = test system: OVCAR-3
M19-MEL = test system: M19-MEL
RPMI-8226 = test system: RPMI-8226
MDA-MB-435 = test system: MDA-MB-435
SNB-19 = test system: SNB-19
HOP-18 = test system: HOP-18
SNB-78 = test system: SNB-78

Measured: GI50

O=C1N[C@@H]([C@H]2CC[C@H](Cl)CN2)C(=O)N[C@H]1[C@H]1CC[C@H](Cl)CN1
inactive: UACC-257 2260 nM | K562 1390 nM | EKVX 3320 nM | SK-MEL-28 4320 nM | COLO 205 1990 nM | RXF 393 2040 nM | KM12 3300 nM | SK-MEL-2 2560 nM | OVCAR-5 1250 nM | DLD-1 4920 nM | IGROV-1 4340 nM | TK-10 4420 nM | KM-20L2 4930 nM | OVCAR-4 2770 nM | HT-29 1830 nM | A498 2630 nM | BT-549 1630 nM | Hs-578T 5060 nM | SK-MEL-5 1210 nM | OVCAR-3 1800 nM | M19-MEL 2470 nM | RPMI-8226 1320 nM | SNB-19 1370 nM | HOP-18 5860 nM | SNB-78 2940 nM
active: PC-3 804 nM | SR 100 nM | NCI/ADR-RES 902 nM | DMS-114 269 nM | MCF7 195 nM | T47D 297 nM | HOP-92 757 nM | HOP-62 280 nM | MOLT-4 103 nM | HCT-116 743 nM | SF-268 466 nM | SF-539 357 nM | HCC 2998 923 nM | 786-0 100 nM | SF-295 169 nM | SK-OV-3 836 nM | MDA-MB-231 925 nM | DU-145 108 nM | NCI-H460 116 nM | NCI-H23 292 nM | Malme-3M 836 nM | UO-31 1040 nM | CAKI-1 261 nM | U-251 406 nM | HL-60 100 nM | UACC-62 137 nM | XF498 184 nM | DMS-273 205 nM | NCI-H226 1040 nM | SN12C 243 nM | LOX IMVI 237 nM | CCRF-CEM 152 nM | MDA-N 555 nM | NCI-H522 706 nM | A549 248 nM | ACHN 100 nM | OVCAR-8 853 nM | SNB-75 507 nM | SW-620 962 nM | M14 158 nM | MDA-MB-435 1060 nM
1140 nM: HCT-15

O=[N+]([O-])c1cc2ncc(-c3ccccc3)c(O)c2cc1/C(Cl)=C/c1ccccc1
inactive: NCI/ADR-RES 4930 nM | UACC-257 24300 nM | DMS-114 4880 nM | MCF7 5020 nM | K562 5860 nM | HOP-92 3470 nM | HOP-62 16300 nM | MOLT-4 6850 nM | EKVX 5570 nM | SK-MEL-28 17200 nM | HCT-116 6890 nM | SF-268 3620 nM | SF-539 11600 nM | HCC 2998 8260 nM | SF-295 6650 nM | COLO 205 7820 nM | SK-OV-3 27100 nM | RXF 393 8170 nM | NCI-H460 9160 nM | NCI-H23 7670 nM | KM12 9120 nM | UO-31 9890 nM | SK-MEL-2 32600 nM | CAKI-1 19100 nM | OVCAR-5 > 44700 nM | U-251 6500 nM | HL-60 5250 nM | DLD-1 3830 nM | UACC-62 6970 nM | XF498 8240 nM | DMS-273 5610 nM | NCI-H226 13000 nM | IGROV-1 5830 nM | SN12C 14200 nM | KM-20L2 17700 nM | LOX IMVI 6930 nM | OVCAR-4 3200 nM | CCRF-CEM 4430 nM | HT-29 13400 nM | A498 16100 nM | NCI-H522 3480 nM | A549 10100 nM | OVCAR-8 5600 nM | SK-MEL-5 5040 nM | SNB-75 9100 nM | SW-620 6710 nM | OVCAR-3 2590 nM | M19-MEL 11600 nM | RPMI-8226 2390 nM | SNB-19 16300 nM | HOP-18 2110 nM | SNB-78 8730 nM
11100 nM: HCT-15
